Reference: patent publication US12215140B2, “Method of stabilizing protein contained in specimen and solution for stabilizing protein contained in specimen” (EIKEN KAGAKU KABUSHIKI KAISHA, priority 2018, dated 2025)

System: hemoglobin-haptoglobin complex
Assay: Stability of hemoglobin (as hemoglobin-haptoglobin complex) in samples preserved at 37° C. in preservation solution containing 1 unit/L haptoglobin, Hb measured by latex agglutination method (Examples 1 to 7)
Design: species or system human
Conditions: for Hb concentration / Recovery ratio with respect to Hb concentration after 0 days / Recovery ratio with respect to Hb after 0 days: 37° C.
Outline: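 Hemoglobin (~300 µg/L) in 0.5% fecal suspension, or without feces, held at 37 °C for 0–21 days in 40 mmol/L HEPES pH 6.8, 0.1% BSA, 0.1% NaN3, 1 unit/L haptoglobin, with 0–100 mmol/L phenylboronic acid ± sugars. Hb quantified by latex agglutination with anti-human Hb rabbit polyclonal; recovery (%) relative to day 0.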

[1] = Feces 3, sugar 50 mmol/L + phenylboronic acid 15 mmol/L, 7 days
[2] = Feces 3, sugar 50 mmol/L + phenylboronic acid 15 mmol/L, 14 days
[3] = Feces 3, sugar 50 mmol/L + phenylboronic acid 15 mmol/L, 21 days
[4] = Feces 3, sugar 100 mmol/L + phenylboronic acid 0.5 mmol/L, 0 days
[5] = Feces 3, sugar 100 mmol/L + phenylboronic acid 0.5 mmol/L, 7 days
[6] = Feces 3, sugar 100 mmol/L + phenylboronic acid 0.5 mmol/L, 14 days
[7] = Feces 3, sugar 100 mmol/L + phenylboronic acid 15 mmol/L, 0 days
[8] = Feces 3, sugar 100 mmol/L + phenylboronic acid 15 mmol/L, 0 days (Table 7)
[9] = Feces 3, sugar 100 mmol/L + phenylboronic acid 15 mmol/L, 7 days
[10] = Feces 3, sugar 100 mmol/L + phenylboronic acid 15 mmol/L, 7 days (Table 7)
[11] = Feces 3, sugar 100 mmol/L + phenylboronic acid 15 mmol/L, 14 days
[12] = Feces 3, sugar 100 mmol/L + phenylboronic acid 15 mmol/L, 14 days (Table 7)
[13] = Feces 3, sugar 100 mmol/L + phenylboronic acid 15 mmol/L, 21 days
[14] = Feces 3, sugar 100 mmol/L + phenylboronic acid 50 mmol/L, 0 days
[15] = Feces 3, sugar 100 mmol/L + phenylboronic acid 50 mmol/L, 7 days
[16] = Feces 3, sugar 100 mmol/L + phenylboronic acid 50 mmol/L, 14 days
[17] = Feces 3, sugar 100 mmol/L, no phenylboronic acid, 0 days
[18] = Feces 3, sugar 100 mmol/L, no phenylboronic acid, 7 days
[19] = Feces 3, sugar 100 mmol/L, no phenylboronic acid, 14 days
[20] = Feces 3, sugar 100 mmol/L, no phenylboronic acid, 21 days
[21] = No feces, sugar 50 mmol/L + phenylboronic acid 15 mmol/L, 0 days
[22] = No feces, sugar 50 mmol/L + phenylboronic acid 15 mmol/L, 7 days
[23] = No feces, sugar 50 mmol/L + phenylboronic acid 15 mmol/L, 14 days
[24] = No feces, sugar 50 mmol/L + phenylboronic acid 15 mmol/L, 21 days
[25] = No feces, sugar 100 mmol/L + phenylboronic acid 0.5 mmol/L, 0 days
[26] = No feces, sugar 100 mmol/L + phenylboronic acid 0.5 mmol/L, 7 days
[27] = No feces, sugar 100 mmol/L + phenylboronic acid 0.5 mmol/L, 14 days
[28] = No feces, sugar 100 mmol/L + phenylboronic acid 15 mmol/L, 0 days
[29] = No feces, sugar 100 mmol/L + phenylboronic acid 15 mmol/L, 0 days (Table 7)
[30] = No feces, sugar 100 mmol/L + phenylboronic acid 15 mmol/L, 7 days
[31] = No feces, sugar 100 mmol/L + phenylboronic acid 15 mmol/L, 7 days (Table 7)
[32] = No feces, sugar 100 mmol/L + phenylboronic acid 15 mmol/L, 14 days
[33] = No feces, sugar 100 mmol/L + phenylboronic acid 15 mmol/L, 14 days (Table 7)
[34] = No feces, sugar 100 mmol/L + phenylboronic acid 15 mmol/L, 21 days
[35] = No feces, sugar 100 mmol/L + phenylboronic acid 50 mmol/L, 0 days
[36] = No feces, sugar 100 mmol/L + phenylboronic acid 50 mmol/L, 7 days
[37] = No feces, sugar 100 mmol/L + phenylboronic acid 50 mmol/L, 14 days
[38] = No feces, sugar 100 mmol/L, no phenylboronic acid, 0 days
[39] = No feces, sugar 100 mmol/L, no phenylboronic acid, 7 days
[40] = No feces, sugar 100 mmol/L, no phenylboronic acid, 14 days
[41] = No feces, sugar 100 mmol/L, no phenylboronic acid, 21 days

## OC[C@@H](O)[C@@H](O)[C@H](O)[C@@H](O)CO [Sorbitol, sorbitol]
[1]
  Hb concentration: 250 µg/L
  Recovery ratio with respect to Hb concentration after 0 days: 88%
[2]
  Hb concentration: 235 µg/L
  Recovery ratio with respect to Hb concentration after 0 days: 83%
[3]
  Hb concentration: 223 µg/L
  Recovery ratio with respect to Hb concentration after 0 days: 79%
[4]
  Hb concentration: 294 µg/L
  Recovery ratio with respect to Hb after 0 days: 100%
[5]
  Hb concentration: 163 µg/L
  Recovery ratio with respect to Hb after 0 days: 55%
[6]
  Hb concentration: 145 µg/L
  Recovery ratio with respect to Hb after 0 days: 49%
[7]
  Hb concentration: 278 µg/L
  Recovery ratio with respect to Hb concentration after 0 days: 100%
[8]
  Hb concentration: 292 µg/L
  Recovery ratio with respect to Hb after 0 days: 100%
[9]
  Hb concentration: 244 µg/L
  Recovery ratio with respect to Hb concentration after 0 days: 88%
[10]
  Hb concentration: 246 µg/L
  Recovery ratio with respect to Hb after 0 days: 84%
[11]
  Hb concentration: 226 µg/L
  Recovery ratio with respect to Hb concentration after 0 days: 81%
[12]
  Hb concentration: 233 µg/L
  Recovery ratio with respect to Hb after 0 days: 80%
[13]
  Hb concentration: 219 µg/L
  Recovery ratio with respect to Hb concentration after 0 days: 79%
[14]
  Hb concentration: 273 µg/L
  Recovery ratio with respect to Hb after 0 days: 100%
[15]
  Hb concentration: 247 µg/L
  Recovery ratio with respect to Hb after 0 days: 90%
[16]
  Hb concentration: 230 µg/L
  Recovery ratio with respect to Hb after 0 days: 84%
[17]
  Hb concentration: 278 µg/L
  Recovery ratio with respect to Hb concentration after 0 days: 100%
[18]
  Hb concentration: 98 µg/L
  Recovery ratio with respect to Hb concentration after 0 days: 35%
[19]
  Hb concentration: 62 µg/L
  Recovery ratio with respect to Hb concentration after 0 days: 22%
[20]
  Hb concentration: 56 µg/L
  Recovery ratio with respect to Hb concentration after 0 days: 20%
[21]
  Hb concentration: 281 µg/L
  Recovery ratio with respect to Hb concentration after 0 days: 100%
[22]
  Hb concentration: 261 µg/L
  Recovery ratio with respect to Hb concentration after 0 days: 93%
[23]
  Hb concentration: 251 µg/L
  Recovery ratio with respect to Hb concentration after 0 days: 89%
[24]
  Hb concentration: 265 µg/L
  Recovery ratio with respect to Hb concentration after 0 days: 94%
[25]
  Hb concentration: 291 µg/L
  Recovery ratio with respect to Hb after 0 days: 100%
[26]
  Hb concentration: 277 µg/L
  Recovery ratio with respect to Hb after 0 days: 95%
[27]
  Hb concentration: 273 µg/L
  Recovery ratio with respect to Hb after 0 days: 94%
[28]
  Hb concentration: 276 µg/L
  Recovery ratio with respect to Hb concentration after 0 days: 100%
[29]
  Hb concentration: 288 µg/L
  Recovery ratio with respect to Hb after 0 days: 100%
[30]
  Hb concentration: 252 µg/L
  Recovery ratio with respect to Hb concentration after 0 days: 91%
[31]
  Hb concentration: 274 µg/L
  Recovery ratio with respect to Hb after 0 days: 95%
[32]
  Hb concentration: 244 µg/L
  Recovery ratio with respect to Hb concentration after 0 days: 88%
[33]
  Hb concentration: 268 µg/L
  Recovery ratio with respect to Hb after 0 days: 93%
[34]
  Hb concentration: 255 µg/L
  Recovery ratio with respect to Hb concentration after 0 days: 92%
[35]
  Hb concentration: 290 µg/L
  Recovery ratio with respect to Hb after 0 days: 100%
[36]
  Hb concentration: 295 µg/L
  Recovery ratio with respect to Hb after 0 days: 102%
[37]
  Hb concentration: 293 µg/L
  Recovery ratio with respect to Hb after 0 days: 101%
[38]
  Hb concentration: 255 µg/L
  Recovery ratio with respect to Hb concentration after 0 days: 100%
[39]
  Hb concentration: 239 µg/L
  Recovery ratio with respect to Hb concentration after 0 days: 94%
[40]
  Hb concentration: 235 µg/L
  Recovery ratio with respect to Hb concentration after 0 days: 92%
[41]
  Hb concentration: 236 µg/L
  Recovery ratio with respect to Hb concentration after 0 days: 93%
Sugar 100 mmol/L further added to other arylboronic acids (3-CPBA, 3-HPBA, 3-APBA) 15 mmol/L, Feces 1, Feces 2, Feces 3
  recovery ratio of hemoglobin in the sample: further improved
Sugar 100 mmol/L, preservation solutions containing no phenylboronic acid
  recovery ratio of hemoglobin in the samples containing fecal specimens: does not improve
Sugar 50 or 100 mmol/L further added to phenylboronic acid 15 mmol/L, Feces 1, Feces 2, Feces 3
  recovery ratio of hemoglobin in the sample: remarkably improved
Sugar added to phenylboronic acid 15 mmol/L, Feces 1, Feces 2, Feces 3
  recovery ratio of hemoglobin in the samples containing feces: improved depending on the added concentration
